Reference: US20160195533A1, “METHOD FOR SCREENING EMT INHIBITOR” (Medicinal Bioconvergence Research Center, priority 2015, published 2016)

Key:
[1] = system: binding between EPRS and Snail1; experiment: Endogenous immunoprecipitation of EPRS with Snail1 immunoblot in TGF-β1-treated cells; type: cell-based; conditions: A549 cells, TGF-β1 0, 1, 10, 20 ng/ml for 48 hours, cytoplasm and nucleus fractions
Procedure: For the detection of endogenous EPRS interaction with Snail1 in nucleus and cytosol, the protein extracts were incubated with protein A agarose (Life technologies) for 30 minutes on ice, and then centrifuged to remove nonspecific IgG binding proteins. The pre-cleared supernatants were mixed with anti-EPRS antibody, incubated the mixture for 2 h at 4° C. with gentle agitation, added protein A agarose for 2 h, and centrifuged. After washing the precipitates with the cold lysis buffer 3-5 times, the precipitates were dissolved in the 2×SDS sample buffer and separated by SDS-PAGE.
The interaction between EPRS and Snail1 were verified at the endogenous level of cytoplasm and nucleus. A549 cells were treated with TGF-β1 of different concentrations (0, 1, 10, 20 ng/ml) for 48 hours, fractionated into the cytoplasm and the nucleus, and then subjected endo-IP using protein A-agarose beads (Invitrogen) and EPRS antibody.

EPRS (A549 cells) = experiment: Immunoblotting of Snail1 and EMT-related markers after EPRS knock-down using siRNA; type: cell-based, human; conditions: si-EPRS vs si-control, with or without 10 ng/ml TGF-β1 for 1 hour or 48 hours, cytoplasm and nucleus
Procedure: Human EPRS gene specific siRNA (si-EPRS) including a sense strand of SEQ ID NO: 23 and an antisense strand of SEQ ID NO: 24, and non-silencing control siRNA (si-control, Catalog Number: 4390843) were purchased from Invitrogen Silencer Select siRNAs products.
Cells were lysed with lysis buffer (20 mM Tris-HCl (pH 8.0) buffer containing 150 mM NaCl, 1% Triton X-100, 1 mM EDTA, 10% glycerol, and protease inhibitor) and collected in a 1.5 ml tube and incubated in 4° C. with gentle agitation for 15 minutes. Then, centrifuged at 15,000 rpm for 20 minutes in 4° C. and supernatants were collected and quantified by using Bradford reagent. After 5×SDS sample buffer was added, each sample were boiled in 100° C. for 5 minutes. Protein samples were separated by SDS-PAGE, transferred to nitrocellulose membrane, and immunoblotted with specific antibodies. The blots were then reacted with horseradish peroxidase-coupled anti-mouse and anti-rabbit (Pierce) IgG secondary antibody. Signals were developed with ECL-PLUS detection reagent (GE healthcare lifesciences).
The antibodies specific to the respective marker proteins, used in the present experiment, are as follows: StrepMAB classic-HRP (IBA), Monoclonal anti-FLAG M2-HRP (Sigma), anti-Snail1 (Cell signaling), anti-Slug (Cell signaling), anti-L13a (Cell signaling), anti-p-Smad2 (Cell signaling), anti-p-Smad3 (Cell signaling), anti-E-cadherin (Cell signaling), anti-N-cadherin (Cell signaling), anti-HDAC1 (Bio vision), anti-β-actin (SCBT), anti-Tubulin (Sigma), anti-HSP90 alpha/β (SCBT), anti-p84 (SCBT), and anti-HA (SCBT). The anti-EPRS antibody was prepared through a conventional procedure by which the EPRS protein represented by SEQ ID NO: 1 was injected into a New Zealand white rabbit to cause an immune response, thereby obtaining an antibody.
It was verified how the reduced EPRS affects Snail1 and EMT progress, through EPRS knock-down experiment using siRNA. For each experimental group, […] cells were treated with si-control or si-EPRS, and treated with or without 10 ng/ml of TGF-β1 for 1 hour or 48 hours. […]

A549 cells [2] = experiment: Cell migration assay (Transwell) after EPRS knock-down; type: cell-based; conditions: si-EPRS vs si-control, groups treated with and without TGF-β1 (10 ng/ml, 12 hours)
Procedure: Cell migration assays with A549 cells were performed in Transwell chambers ([…] pore, Costar). Fibronectin (10 μg/ml, BD Biosciences) was coated on the membrane and 700 μl serum-free RPMI was placed in the bottom chamber. After A549 cells were trypsinized and centrifuged at 1,000 rpm for 5 minutes, serum-free RPMI was added to the cells for suspension. Then, 1×10^5 cells were dropped into 24-well Transwell chambers and incubated for 12 h at 37° C. in a CO2 incubator. After washing the membrane twice with PBS, 70% methyl alcohol in PBS was used for cell fixation. PBS washing was performed three times afterwards and hematoxylin (Sigma) was used for cell staining After washing the membrane with distilled water several times, non-migrant cells from the top were removed by using cotton swab. Then, the membranes were mounted with Gel Mount (Biomeda). For counting migrant cells, three randomly picked places were magnified with microscopes in high-power fields (×10, and ×20). All samples were performed in triplicate.
Here, the TGF-β1 treatment groups were treated at a concentration of 10 ng/ml for 12 hours.

A549 cells [3] = experiment: Cell invasion assay (Matrigel invasion chamber) after EPRS knock-down; type: cell-based; conditions: si-EPRS vs si-control, groups treated with and without TGF-β1 (10 ng/ml, 12 hours)
Procedure: Cell invasion assay using A549 cells were conducted in the Matrigel invasion chamber manufactured by BD Co. According to the manufacturer's protocol, the matrigel was rehydrated for two hours and 750 μl of the serum-free RPMI was located in a lower chamber. The A549 cells were trypsinized, and then centrifuged at 1,000 rpm for 5 minutes. The serum-free RPMI was added to the cells to prepare a suspension. Then, 1×10^5 cells were put in the upper chamber, and then incubated in a CO2 incubator at 37° C. for 12 hours. The membrane was washed two times with PBS, and the cells were fixed using PBS containing 70% methyl alcohol. Then, the membrane was washed three times with PBS, and then the cells were stained with hematoxylin (Sigma). The membrane was washed several times with distilled water, and then immobilized cells above were removed using cotton swabs. Then, the membrane was mounted on the Gel Mount (Biomeda). For counting moving cells, three randomly selected regions were magnified through the microscope. All samples were repeatedly tested three times.
Here, the groups treated with TGF-β1 were prepared by treatment at a concentration of 10 ng/ml for 12 hours.

Row | Substance | binding between EPRS and Snail1 (endo-IP, Snail1 immunoblot) [1] | E-cadherin protein level (immunoblot) (EPRS (A549 cells)) | Snail1 protein level (immunoblot) (EPRS (A549 cells)) | p-SMAD3 protein level (immunoblot) (EPRS (A549 cells)) | cell migration (A549 cells [2]) | cell invasion (A549 cells [3])
1 | TGF-β1: Growth factor purchased from R&D systems, used to induce EMT | the higher the concentration of TGF-β1, the stronger the binding between EPRS and Snail1 | – | – | – | – | –
2 | si-EPRS: Human EPRS gene specific siRNA including a sense strand of SEQ ID NO: 23 and an antisense strand of SEQ ID NO: 24 (sense CGAUGUCAGCAUUUCCGUUTT; antisense AACGGAAAUGCUGACAUCGTC; chemistry not given here) | – | increased | reduced | reduced | reduced | reduced
